According to ChEMBL document CHEMBL1145352, “Synthesis and cytotoxic activity of trisubstituted-1,3,5-triazines” (Bioorg Med Chem Lett, 2007):
Converted amounts (≈) assume the structure as drawn.

Tests used:
HL-60 [1] = assay: Photocytotoxicity against human HL60 cells irradiated with 1.25 J cm^-2 UVA dose after 72 hrs by MTT assay; format: functional; settings: HL-60, light or radiation study
[2] = test system: Mycobacterium tuberculosis; assay: Antimycobacterial activity against Mycobacterium tuberculosis H37Rv; format: functional
[3] = test system: Mycobacterium tuberculosis; assay: Antimycobacterial activity against Mycobacterium tuberculosis H37Rv relative to control; format: functional; design: concentration or dose not given beside the values
[4] = Inhibition of oxygen evolution rate in spinach chloroplasts; format: functional, Spinacia oleracea
HL-60 [5] = assay: Cell cycle arrest in human HL60 cells irradiated with 2.5 J cm^-2 CUVA assessed as accumulation at G1 phase at 5 mM after 72 hrs; format: functional
HL-60 [6] = assay: Induction of apoptosis in human HL60 cells irradiated with 2.5 J cm^-2 CUVA assessed as appearance of sub G1 peak at 5 mM after 24 hrs; format: functional
HL-60 [7] = assay: Cell cycle arrest in human HL60 cells irradiated with 2.5 J cm^-2 CUVA assessed as accumulation at S phase at 5 mM after 24 hrs; format: functional
HL-60 [8] = assay: Cell cycle arrest in human HL60 cells irradiated with 2.5 J cm^-2 CUVA assessed as accumulation at G2 phase at 2.5 mM after 24 hrs; format: functional
HL-60 [9] = assay: Induction of apoptosis in human HL60 cells irradiated with 2.5 J cm^-2 CUVA assessed as appearance of sub G1 peak at 2.5 mM after 48 hrs; format: functional
HL-60 [10] = assay: Cell cycle arrest in human HL60 cells irradiated with 2.5 J cm^-2 CUVA assessed as accumulation at S phase at 5 mM after 72 hrs; format: functional
HL-60 [11] = assay: Cell cycle arrest in human HL60 cells irradiated with 2.5 J cm^-2 CUVA assessed as accumulation at G1 phase at 5 mM after 48 hrs; format: functional
HL-60 [12] = assay: Cell cycle arrest in human HL60 cells irradiated with 2.5 J cm^-2 CUVA assessed as accumulation at G1 phase at 2.5 mM after 24 hrs; format: functional
HL-60 [13] = assay: Cell cycle arrest in human HL60 cells irradiated with 2.5 J cm^-2 CUVA assessed as accumulation at G2 phase at 2.5 mM after 72 hrs; format: functional
HL-60 [14] = assay: Cell cycle arrest in human HL60 cells irradiated with 2.5 J cm^-2 CUVA assessed as accumulation at S phase at 2.5 mM after 48 hrs; format: functional
Chlorella vulgaris = assay: Antialgal activity against Chlorella vulgaris assessed as inhibition of chlorophyll production; format: functional, organism-based
HL-60 [15] = assay: Cell cycle arrest in human HL60 cells irradiated with 2.5 J cm^-2 CUVA assessed as accumulation at G1 phase at 5 mM after 24 hrs; format: functional
HL-60 [16] = assay: Induction of apoptosis in human HL60 cells irradiated with 2.5 J cm^-2 CUVA assessed as appearance of sub G1 peak at 2.5 mM after 72 hrs; format: functional
HL-60 [17] = assay: Induction of apoptosis in human HL60 cells irradiated with 2.5 J cm^-2 CUVA assessed as appearance of sub G1 peak at 2.5 mM after 24 hrs; format: functional
LoVo [18] = assay: Photocytotoxicity against human LoVo cells irradiated with 1.25 J cm^-2 UVA dose after 72 hrs by MTT assay; format: functional; settings: light or radiation study
HL-60 [19] = assay: Cell cycle arrest in human HL60 cells irradiated with 2.5 J cm^-2 CUVA assessed as accumulation at S phase at 2.5 mM after 24 hrs; format: functional
LoVo [20] = assay: Photocytotoxicity against human LoVo cells irradiated with 2.5 J cm^-2 UVA dose after 72 hrs by MTT assay; format: functional; settings: light or radiation study
HL-60 [21] = assay: Cell cycle arrest in human HL60 cells irradiated with 2.5 J cm^-2 CUVA assessed as accumulation at G2 phase at 2.5 mM after 48 hrs; format: functional
HL-60 [22] = assay: Induction of apoptosis in human HL60 cells irradiated with 2.5 J cm^-2 CUVA assessed as appearance of sub G1 peak at 5 mM after 72 hrs; format: functional
HL-60 [23] = assay: Cell cycle arrest in human HL60 cells irradiated with 2.5 J cm^-2 CUVA assessed as accumulation at G2 phase at 5 mM after 24 hrs; format: functional
HL-60 [24] = assay: Cell cycle arrest in human HL60 cells irradiated with 2.5 J cm^-2 CUVA assessed as accumulation at G1 phase at 2.5 mM after 72 hrs; format: functional
HL-60 [25] = assay: Cell cycle arrest in human HL60 cells irradiated with 2.5 J cm^-2 CUVA assessed as accumulation at S phase at 2.5 mM after 72 hrs; format: functional
HL-60 [26] = assay: Cell cycle arrest in human HL60 cells irradiated with 2.5 J cm^-2 CUVA assessed as accumulation at S phase at 5 mM after 48 hrs; format: functional
HL-60 [27] = assay: Cell cycle arrest in human HL60 cells irradiated with 2.5 J cm^-2 CUVA assessed as accumulation at G2 phase at 5 mM after 72 hrs; format: functional
HL-60 [28] = assay: Cell cycle arrest in human HL60 cells irradiated with 2.5 J cm^-2 CUVA assessed as accumulation at G2 phase at 5 mM after 48 hrs; format: functional
HL-60 [29] = assay: Cell cycle arrest in human HL60 cells irradiated with 2.5 J cm^-2 CUVA assessed as accumulation at G1 phase at 2.5 mM after 48 hrs; format: functional
HL-60 [30] = assay: Induction of apoptosis in human HL60 cells irradiated with 2.5 J cm^-2 CUVA assessed as appearance of sub G1 peak at 5 mM after 48 hrs; format: functional

c1ccc(Nc2nc(Nc3ccccc3)nc(Nc3ccccc3)n2)cc1
GI50 (HL-60 [1]): > 10 mM | MIC [2]: > 6.25 µg/mL | Inhibition [3]: 0% | IC50 [4]: 1.072 mmol/dm3

Oc1nc(O)nc(O)n1
GI50 (HL-60 [1]): 4.3 mM | MIC [2]: > 6.25 µg/mL | Inhibition [3]: 39% | IC50 [4]: 0.081 mmol/dm3

CC(=O)Nc1nc(NC(C)=O)nc(NC(C)=O)n1
Activity (HL-60 [5]): 57.3% | GI50 (HL-60 [1]): 6.8 mM | Activity (HL-60 [6]): 21% | Activity (HL-60 [7]): 54.3% | Activity (HL-60 [8]): 10.8% | Activity (HL-60 [9]): 27% | Activity (HL-60 [10]): 37.1% | Activity (HL-60 [11]): 50.3% | Activity (HL-60 [12]): 29.3% | Activity (HL-60 [13]): 12% | Activity (HL-60 [14]): 45% | IC50 (Chlorella vulgaris): 0.208 mmol/dm3 | Activity (HL-60 [15]): 34.2% | Activity (HL-60 [16]): 40.5% | MIC [2]: > 6.25 µg/mL | Activity (HL-60 [17]): 13.2% | Inhibition [3]: 11% | GI50 (LoVo [18]): 3.5 mM | Activity (HL-60 [19]): 58.4% | GI50 (LoVo [20]): 1.89 mM | Activity (HL-60 [21]): 10.3% | Activity (HL-60 [22]): 46% | IC50 [4]: 0.148 mmol/dm3 | Activity (HL-60 [23]): 11.1% | Activity (HL-60 [24]): 45.2% | Activity (HL-60 [25]): 43.8% | Activity (HL-60 [26]): 38.6% | Activity (HL-60 [27]): 6.9% | Activity (HL-60 [28]): 11.7% | Activity (HL-60 [29]): 44.5% | Activity (HL-60 [30]): 26%

CNc1nc(NC)nc(NC)n1
GI50 (HL-60 [1]): > 10 mM | IC50 (Chlorella vulgaris): 0.356 mmol/dm3 | MIC [2]: > 6.25 µg/mL | Inhibition [3]: 24% | IC50 [4]: 0.118 mmol/dm3

COc1ccc(Nc2nc(Nc3ccc(OC)cc3)nc(Nc3ccc(OC)cc3)n2)cc1
GI50 (HL-60 [1]): 3.4 mM | IC50 (Chlorella vulgaris): 0.079 mmol/dm3 | MIC [2]: > 6.25 µg/mL | Inhibition [3]: 72% | IC50 [4]: 0.241 mmol/dm3

CCN(CC)c1nc(N(CC)CC)nc(N(CC)CC)n1
GI50 (HL-60 [1]): > 10 mM | IC50 (Chlorella vulgaris): 0.067 mmol/dm3 | MIC [2]: > 6.25 µg/mL | Inhibition [3]: 0% | GI50 (LoVo [18]): > 20 mM | GI50 (LoVo [20]): 12.5 mM | IC50 [4]: 0.244 mmol/dm3

CN(C)c1nc(N(C)C)nc(N(C)C)n1 [ALTRETAMINE]
GI50 (HL-60 [1]): > 10 mM | IC50 (Chlorella vulgaris): 0.125 mmol/dm3 | MIC [2]: > 6.25 µg/mL | Inhibition [3]: 28% | GI50 (LoVo [18]): 17.2 mM | GI50 (LoVo [20]): 10.3 mM | IC50 [4]: 0.486 mmol/dm3

CN(C)C(=O)Nc1ccc(Cl)c(Cl)c1 [DCMU]
IC50 (Chlorella vulgaris): 0.0073 mmol/dm3 | IC50 [4]: 0.0019 mmol/dm3

CO[C@H]1/C=C/O[C@@]2(C)Oc3c(C)c(O)c4c(O)c(c(/C=N/N5CCN(C)CC5)c(O)c4c3C2=O)NC(=O)/C(C)=C\C=C\[C@H](C)[C@H](O)[C@@H](C)[C@@H](O)[C@@H](C)[C@H](OC(C)=O)[C@@H]1C [RIFAMPIN]
MIC [2]: 0.125 µg/mL (≈ 0.152 µM) | Inhibition [3]: 100%
